As usually defined, the inhibition is the change of the read-out against control, counted positive when it falls. In general, EC50 refers to the midpoint of the concentration-response curve. High values mean a need for much substance, low ones an effect from little substance.

Experimental findings from US8962637B2, “Bicyclic compounds and their uses as dual c-SRC/JAK inhibitors” (Debiopharm S.A., priority 2010, dated 2015) are described below.

In one experiment the target is JAK1 (Homo sapiens (Human), UniProt P23458). Briefly: JAK1 kinase inhibition. The note with it: for inhibition at 0.1 µM: read-out: JAK1 % inhibition at 100 nM; for inhibition at 1 µM: read-out: JAK1 % inhibition at 1 μM. It counts as biochemical.
Sequence of JAK1 (P23458 whole entry): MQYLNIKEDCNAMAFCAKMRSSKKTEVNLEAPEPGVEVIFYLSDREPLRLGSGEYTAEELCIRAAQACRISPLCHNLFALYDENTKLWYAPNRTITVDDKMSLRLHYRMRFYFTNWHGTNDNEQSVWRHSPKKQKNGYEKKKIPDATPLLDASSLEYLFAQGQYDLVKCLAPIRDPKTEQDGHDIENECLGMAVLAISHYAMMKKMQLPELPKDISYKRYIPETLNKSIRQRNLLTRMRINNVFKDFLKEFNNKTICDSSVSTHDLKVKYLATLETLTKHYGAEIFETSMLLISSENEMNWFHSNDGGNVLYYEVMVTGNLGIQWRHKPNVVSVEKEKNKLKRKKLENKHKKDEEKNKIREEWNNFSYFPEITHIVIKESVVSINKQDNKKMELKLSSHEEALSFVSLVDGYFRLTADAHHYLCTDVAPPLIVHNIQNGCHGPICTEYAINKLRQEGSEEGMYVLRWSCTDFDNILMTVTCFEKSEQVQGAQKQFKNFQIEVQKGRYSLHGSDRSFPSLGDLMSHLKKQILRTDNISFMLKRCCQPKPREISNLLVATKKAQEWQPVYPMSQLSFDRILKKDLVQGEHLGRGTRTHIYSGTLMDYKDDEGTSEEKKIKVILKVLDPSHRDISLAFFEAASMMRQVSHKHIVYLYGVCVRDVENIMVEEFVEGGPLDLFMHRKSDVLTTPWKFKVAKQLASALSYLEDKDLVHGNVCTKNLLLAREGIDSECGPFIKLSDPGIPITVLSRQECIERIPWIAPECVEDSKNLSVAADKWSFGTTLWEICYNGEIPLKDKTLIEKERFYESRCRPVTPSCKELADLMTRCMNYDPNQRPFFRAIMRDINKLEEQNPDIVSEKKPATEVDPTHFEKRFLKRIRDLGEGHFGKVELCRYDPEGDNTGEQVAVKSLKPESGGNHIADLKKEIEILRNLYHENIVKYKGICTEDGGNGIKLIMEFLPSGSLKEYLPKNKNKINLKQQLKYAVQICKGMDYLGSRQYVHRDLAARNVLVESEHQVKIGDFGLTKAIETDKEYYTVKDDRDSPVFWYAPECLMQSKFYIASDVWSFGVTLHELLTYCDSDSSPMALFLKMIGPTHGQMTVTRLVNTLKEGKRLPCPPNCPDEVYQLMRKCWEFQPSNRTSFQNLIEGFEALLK
The next experiment deals with pStat3. Briefly: In-Cell-Western blot assay for pStat3 (ICW) in A431 cells. It counts as cell-based. The note with it: Homo sapiens, A-431, 2 hrs, read-out: pSTAT3 inhibition. As to the method:
A431 cells were seeded onto a 96-well micro plate. After overnight serum starvation cells were incubated with compounds for 2 hrs. Cells were fixed with 4% paraformaldehyde in PBS and then permeabilized with 0.1% Triton X-100 in PBS (PBST). Cells were blocked with 5% BSA in PBST for 2 hrs, followed by overnight incubation with phospho Stat3 antibody. Cells were washed and incubated with europium-labeled anti-rabbit secondary antibody for 2 hrs. After washing enhancement solution was added to the wells. The micro-plate was read on the Victor instrument at the Europium setting. The Hoechst readings were used to normalize for cell number. IC50 values were calculated with the normalized europium values using Graphpad Prism.

A further experiment has as its system Mda-Mb-231 cells. The experiment in a line: Cell viability assay (XTT assay), Mda-Mb-231. In kind it is cell-based. The note with it: Homo sapiens, 72 hrs. As to the method:
Mda-Mb-231 or A549 cells were seeded onto a 96-well micro plate. Next day compounds were added to cells and incubated for 72 hrs. Compound treatment was done in triplicates. After 72 hrs cell culture media was aspirated from the wells and XTT working solution was added and plates were incubated for 2-5 hrs. The absorbance of the samples was measured with a spectrophotometer at a wavelength of 465 nm. EC50 values were calculated using Graphpad Prism. Tumor cell lines used in the examples of the present invention were procured from ATCC. Description of the cell lines is included in the following table: […]

Another experiment addresses JAK2 (Homo sapiens (Human), UniProt O60674). Briefly: TR-FRET JAK2 kinase assay. In kind it is biochemical. The note with it: ATP 10 μM. How it is done: (§1) Compounds were screened in the TR-FRET assay for JAK2 and c-Src kinase inhibition. Ultra light poly GT (Perkin Elmer) was used as the substrate for JAK2 and c-Src with the ATP concentration of 10 μM and 50 μM, respectively. […] The dose-response curve fitting was done using GraphPad Prism software.
For orientation: Time-resolved FRET reads energy transfer from a long-lived donor to a nearby acceptor.

Another experiment deals with c-Src (Homo sapiens (Human), UniProt P12931). Briefly: TR-FRET c-Src kinase assay. The note with it: ATP 50 μM. It counts as biochemical. How it is done: as §1
Sequence of c-Src (P12931 whole entry, looked up): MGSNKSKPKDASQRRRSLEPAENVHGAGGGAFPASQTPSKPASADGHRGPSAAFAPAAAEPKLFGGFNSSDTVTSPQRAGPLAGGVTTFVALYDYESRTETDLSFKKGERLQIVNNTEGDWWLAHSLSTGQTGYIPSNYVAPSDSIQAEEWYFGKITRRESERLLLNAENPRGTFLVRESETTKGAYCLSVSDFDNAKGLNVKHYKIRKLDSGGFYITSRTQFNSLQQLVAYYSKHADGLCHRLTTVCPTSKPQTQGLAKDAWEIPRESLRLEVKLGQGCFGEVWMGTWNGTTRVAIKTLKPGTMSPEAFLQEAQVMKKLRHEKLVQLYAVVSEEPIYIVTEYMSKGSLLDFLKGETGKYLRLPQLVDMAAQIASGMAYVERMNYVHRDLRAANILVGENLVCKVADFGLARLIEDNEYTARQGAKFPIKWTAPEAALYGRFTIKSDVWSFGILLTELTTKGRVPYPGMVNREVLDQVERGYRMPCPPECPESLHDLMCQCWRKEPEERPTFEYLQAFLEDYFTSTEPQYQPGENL

Sequence of JAK2 (O60674 whole entry): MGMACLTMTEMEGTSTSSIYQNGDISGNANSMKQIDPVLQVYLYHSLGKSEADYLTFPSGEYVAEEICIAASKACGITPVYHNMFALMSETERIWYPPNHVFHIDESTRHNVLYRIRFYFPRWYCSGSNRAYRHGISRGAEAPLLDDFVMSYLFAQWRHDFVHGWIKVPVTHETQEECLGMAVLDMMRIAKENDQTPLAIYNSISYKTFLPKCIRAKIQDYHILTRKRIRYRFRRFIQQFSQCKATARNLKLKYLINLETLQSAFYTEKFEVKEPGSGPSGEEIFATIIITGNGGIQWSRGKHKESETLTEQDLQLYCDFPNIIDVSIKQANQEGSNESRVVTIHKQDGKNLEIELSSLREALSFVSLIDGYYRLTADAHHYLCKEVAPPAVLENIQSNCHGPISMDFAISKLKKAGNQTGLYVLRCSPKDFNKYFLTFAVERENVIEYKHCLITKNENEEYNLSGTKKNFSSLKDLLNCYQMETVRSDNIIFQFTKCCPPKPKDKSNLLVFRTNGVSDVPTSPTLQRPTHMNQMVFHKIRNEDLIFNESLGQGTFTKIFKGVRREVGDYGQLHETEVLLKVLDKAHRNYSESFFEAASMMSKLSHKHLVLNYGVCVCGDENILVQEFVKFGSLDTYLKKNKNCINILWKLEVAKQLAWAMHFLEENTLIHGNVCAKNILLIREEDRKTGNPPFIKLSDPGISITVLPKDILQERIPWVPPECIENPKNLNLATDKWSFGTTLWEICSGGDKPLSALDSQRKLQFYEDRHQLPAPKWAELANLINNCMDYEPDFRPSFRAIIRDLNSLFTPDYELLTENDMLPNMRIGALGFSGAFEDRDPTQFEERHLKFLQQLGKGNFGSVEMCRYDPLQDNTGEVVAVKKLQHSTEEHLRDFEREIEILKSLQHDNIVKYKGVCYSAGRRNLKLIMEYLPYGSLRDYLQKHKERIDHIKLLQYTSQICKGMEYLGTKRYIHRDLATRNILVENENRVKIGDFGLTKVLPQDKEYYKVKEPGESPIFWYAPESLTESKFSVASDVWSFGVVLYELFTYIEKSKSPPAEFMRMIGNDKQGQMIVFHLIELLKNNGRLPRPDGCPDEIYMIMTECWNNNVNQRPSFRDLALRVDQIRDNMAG

For `Cc1ccc(NC(=O)c2cccc(C(F)(F)F)c2)cc1N1CCc2nc(Nc3ccc(OCCN4CCCC4)cc3)ncc2C1` [Compound 9, N-(4-Methyl-3-{2-[4-(2-pyrrolidin-1-yl-ethoxy)-phenylamino]-7,8-dihydro-5H-pyrido[4,3-d]pyrimidin-6-yl}-phenyl)-3-trifluoromethyl-benzamide], on JAK1, the inhibition at 0.1 µM was determined as 58% and the inhibition at 1 µM worked out at 85%.
Regarding `Cc1ccc(NC(=O)c2cccc(C(F)(F)F)c2)cc1N1CCc2nc(Nc3ccncc3)ncc2C1` [Compound 15, N-{4-Methyl-3-[2-(pyridin-4-ylamino)-7,8-dihydro-5H-pyrido[4,3-d]pyrimidin-6-yl]-phenyl}-3-trifluoromethyl-benzamide], at JAK1, the inhibition at 0.1 µM was 49% and the inhibition at 1 µM amounted to 73%.
Regarding `Cc1ccc(NC(=O)c2cccc(C(F)(F)F)c2)cc1N1CCc2nc(Nc3ccc4c(c3)CCC(=O)N4)ncc2C1` [Compound 18, N-{4-Methyl-3-[2-(2-oxo-1,2,3,4-tetrahydro-quinolin-6-ylamino)-7,8-dihydro-5H-pyrido[4,3-d]pyrimidin-6-yl]-phenyl}-3-trifluoromethyl-benzamide], on JAK1, the inhibition at 0.1 µM worked out at 82% and the inhibition at 1 µM was 89%.
In the case of `Cc1ccc(NC(=O)c2cccc(C(F)(F)F)c2)cc1N1CCc2nc(Nc3cccnc3)ncc2C1` [Compound 23, N-{4-Method-3-[2-(pyridin-3-ylamino)-7,8-dihydro-5H-pyrido[4,3-d]pyrimidin-6-yl]-phenyl}-3-trifluoromethyl-benzamide], on JAK1, the inhibition at 0.1 µM stood at 84% and the inhibition at 1 µM was 88%.
Turning to `Cc1ccc(NC(=O)c2cccc(C(F)(F)F)c2)cc1N1CCc2nc(Nc3ccnc(Cl)c3)ncc2C1` [Compound 25, N-{3-[2-(2-Chloro-pyridin-4-ylamino)-7,8-dihydro-5H-pyrido[4,3-d]pyrimidin-6-yl]-4-methyl-phenyl}-3-trifluoromethyl-benzamide], on JAK1, the inhibition at 0.1 µM was found to be 58% and the inhibition at 1 µM is 96%.
Take `Cc1ccc(NC(=O)c2cccc(C(F)(F)F)c2)cc1N1CCc2nc(Nc3ccncc3)ncc2C1=O` [Compound 26, N-{4-Methyl-3-[5-oxo-2-(pyridin-4-ylamino)-7,8-dihydro-5H-pyrido[4,3-d]pyrimidin-6-yl]-phenyl}-3-trifluoromethyl-benzamide]: at JAK1, the inhibition at 0.1 µM was 57% and the inhibition at 1 µM was determined as 79%.
Take `Cc1ccc(NC(=O)CC(C)C(F)(F)F)cc1N1CCc2nc(Nc3ccc(N4CCN(C)CC4)cc3)ncc2C1` (stereo not shown) [Compound 123, 4,4,4-Trifluoro-3-methyl-N-(4-methyl-3-{2-[4-(4-methyl-piperazin-1-yl)-phenylamino]-7,8-dihydro-5H-pyrido[4,3-d]pyrimidin-6-yl}-phenyl)-butyramide]: the IC50 with pStat3 came out at 0.19 µM; on JAK2, 0.009 µM; on c-Src it was 0.003 µM. Besides, the EC50 in the experiment with Mda-Mb-231 cells turned out to be 0.83 µM.
On to `Cc1ccc(NC(=O)c2cc(C(F)(F)F)ccn2)cc1N1CCc2nc(Nc3ccc(N4CCN(C)CC4)cc3)ncc2C1` [Compound 146, 4-Trifluoromethyl-pyridine-2-carboxylic acid (4-methyl-3-{2-[4-(4-methyl-piperazin-1-yl)-phenylamino]-7,8-dihydro-5H-pyrido[4,3-d]pyrimidin-6-yl}-phenyl)-amide], for which the IC50 turned out to be 0.35 µM in the experiment on pStat3, 0.005 µM against JAK2 and 0.006 µM on c-Src. Further, in the experiment with Mda-Mb-231 cells, the EC50 amounted to 0.37 µM.
With `Cc1ccc(NC(=O)c2cccc(C(F)(F)F)c2)cc1N1CCc2nc(Nc3ccc(N4CCNCC4)cc3)ncc2C1=O` [Compound 178, N-{4-Methyl-3-[5-oxo-2-(4-piperazin-1-yl-phenylamino)-7,8-dihydro-5H-pyrido[4,3-d]pyrimidin-6-yl]-phenyl}-3-trifluoromethyl-benzamide], the IC50 was found to be 0.15 µM in the experiment on pStat3, 0.007 µM against JAK2 and 0.017 µM against c-Src. Also, it took 1.75 µM to reach a half-maximal effect in the experiment with Mda-Mb-231 cells (EC50). For the same compound, the inhibition at 0.1 µM on JAK2 (read-out: JAK2 % inhibition at 100 nM, 100 nM) was 91%; on c-Src (read-out: c-SRC % inhibition at 100 nM, 100 nM), 77%. In addition, the inhibition at 1 µM is 92% at JAK2 (read-out: JAK2 % inhibition at 1 μM, 1 μM) and 90% on c-Src (read-out: c-SRC % inhibition at 1 μM, 1 μM).
